Experimental data: patent publication US7988972B2, “Immunoreactive peptides from Epstein-Barr virus” (Ortho-Clinical Diagnostics, Inc., priority 1993, dated 2011)

Assays:
[1] = tested on: EA reactive antibody (IgG) in infectious mononucleosis (IM) sera; experiment: ELISA, EA peptides with EBV infectious mononucleosis sera; format: binding, human; settings: EA positive EBV IM acute serum
Experimental: (§1) ELISA. The ELISA for measuring specific antibodies to p17, p50 or to the synthetic peptides was performed as previously described in detail (Luka et al., J. Immunol. Methods, 67:145-156, 1984). Aliquots of different antigen concentrations were diluted in 0.5M Na2CO3 buffer, pH 9.5, added to wells in polystyrene microtiter plates (Linbro) and the plates incubated overnight at 4° C. Following this incubation period, the plates were washed 5× with Tris-HCl, pH 7.4, containing 0.05% Tween 20, 50 mM NaCl and 100 mg per liter albumin (Sigma) and dried for 20 minutes at room temperature. The plates were screened with different anti-EA-R or EA-D antibody positive human sera and the monoclonal antibody to p17 or p50 to identify the optimal concentration of antigen to be used in the serological studies. Alkaline-phosphatase-labelled goat anti-human IgG (Sigma) or goat anti-mouse IgG (Sigma) was used as the indicator system.
(§2) For the testing of human sera for antibodies to native p17, p50 or to the synthetic peptides, sera were diluted 1:10 in ELISA buffer, added in 0.1 ml volumes to wells coated with optimal concentrations of antigen and the plates were incubated for 60 minutes at room temperature. After 4 washes with ELISA buffer, 100 μl of alkaline phosphatase-labelled goat anti-human IgG in ELISA buffer were added to each well and the plates were incubated at room temperature for 1 hour. Following four more washes in buffer, the enzyme reaction was performed by dissolving 1 mg per ml of Sigma alkaline phosphatase substrate in 1M diethanolamine buffer, pH 10.4, containing 1 mM MgCl2 and 0.1 mM ZnCl2, and 100 μl of the mixture was then added to each well. The reaction was allowed to proceed for 30 minutes at 37° C. and then the plates were screened directly with a microplate reader, TITERTEK MULTISKAN MC (Flow), at 420 nm. Readings above 0.1 which was 2× the background noted with antibody-negative sera were considered positive reactions.
When the entire 50.10 peptide was tested with 1M sera, 24/32 or 75% of the sera contained EA-D reactive antibody (IgG) (Table 4).
Serological reactivity of EA peptides p17.1 and p50.1 which contained additional amino acids on their amino and carboxy termini was tested on EBV IM acute sera which was EA positive. The ELISA results shown in Table 5 indicate that the additional amino acids improved reactivity for both EA peptides.
Immunofluorescence assays (IFA) were performed as described by Henle, et al. (Int. J. Cancer, 8:272-282, 1971). Western blot analysis was done by methods commonly used in the art (See for example, Coligan, et al., Current Protocols in Immunology, Wiley Interscience, 1991, Unit 12). Samples of EBV-infected cell lysates (P3HR-1) were tested with human whole antiserum from positive humans (Pearson, et al., Virology, 160:151-161, 1987). A comparison was made between EA serology by IFA, using the EA-D 50.1 peptide antisera, and ELISA serology using 50.1 peptide (see Example 2).

[2] = tested on: peripheral blood lymphocytes (PBL); experiment: Proliferation assay of peripheral blood lymphocytes (3H-thymidine incorporation); format: cell-based, human; settings: for proliferation response: PBL from 3 anti-VCA-positive anti-EA-antibody-negative individuals; for 3H-thymidine Incorporation (cpm + S.D.) / S.I. (stimulation index): PBL from anti-VCA-positive, anti-EA-positive donor, 5 days
Experimental: Proliferation assays. T-cell proliferation assays using the native p17 or p50 polypeptide or the synthetic peptides were performed as previously described in detail (Pothen et al., Int. J. Cancer, 49:656-660, 1991). Briefly, peripheral blood lymphocytes (PBLO from sero-positive donors were isolated on FICOLL-HYPAQUE gradients, washed and resuspended in RPMI 1640 media containing 10% heat-inactivated human A^+ serum from a sero-negative donor. Cells (1×10^5 per 0.1 ml) were then added to each well in 96-well, round-bottomed tissue culture plates (Costar, Cambridge, Mass.). The different antigen preparations were added to triplicate wells in 0.1 ml volumes and the plates were incubated at 37° C. for 5 days. ^3H-thymidine (5 Ci per mM) was added at a concentration of 1 μCi per well over the last 4 hours of culture. The cells were then harvested with a multichannel sample harvester and ^3H-thymidine incorporation was determined using a Beckman Model LS 3801 liquid scintillation counter. Stimulation indices for the test antigens were calculated by dividing the average counts per minute (CPMO for the test antigens by the average CPM of the medium control wells.
PBL from asymptomatic EBV-infected individuals were tested for response to any of the three p17 synthetic peptides (Table 1) by a proliferation assay using lymphocytes previously shown to proliferate in the presence of native p17 (Pothen et al., Int. J. Cancer, 49:656-660, 1991). Different concentrations of the synthetic peptides were incubated with the PBL for 5 days and then proliferation was assayed by the incorporation of ^3H-thymidine. The native p17 purified from activated P3HR-1 cells gave a S.I. of 15.8 in this experiment. […] Neither of the other synthetic peptides induced a proliferation response at the concentrations tested.
PBL from 3 anti-VCA-positive anti-EA-antibody-negative individuals were also examined in the proliferation assay with the three synthetic peptides. Again, all 3 PBL preparations responded to the highest concentrations of p17.1 with S.I.'s ranging from 3.5-11. Two of the preparations (FIG. 2A,C) also proliferated in the presence of lower concentrations of antigen with S.I.'s of 3 and 5 respectively. […] These experiments established that T-lymphocytes from EBV-infected individuals, irrespective of the presence of antibody to EA, recognized a dominant epitope on p17.

[3] = tested on: anti-EA antibodies in human sera; experiment: ELISA, serological reactivity of human sera with p17 synthetic peptides; format: binding; settings: for share of anti-EA-positive sera that reacted: 87 anti-EA antibody-positive sera (titer>160), 2 μg peptide per well; for No. Positive/No. Tested / No. Positive/No. Tested (%): sera 1:10
Experimental: as §1, §2
Studies were designed to determine the serological reactivity with the p17 synthetic epitopes. For this purpose, 87 anti-EA antibody-positive sera (titer>160) were tested in the ELISA against optimal pre-determined concentrations (2 μg per well) of the p17 synthetic peptides. The sera were obtained from 28 patients with African Burkift's lymphoma (ABL) collected during the Ghanian Burkitt Tumor Project, and from 28 North American patients with intermediate large cell, or high grade non-Hodgkin's lymphoma (NANHL). The donors included both HIV-positive and HIV-negative individuals. In addition, sera from 31 North American nasopharyngeal carcinoma (NANPC) patients were examined in this study (Pearson, G. R., et al., Cancer, 51:260-268, 1983). To validate the EA specificity of the serological reactions, the results with these sera were compared with results with 23 VCA and EA antibody-negative sera and 30 VCA-antibody-positive, EA-antibody negative sera. In contrast to the T-cell proliferation results, all three synthetic peptides reacted with the EA antibody-positive sera to varying degrees with p17.1 again being the dominant epitope. Approximately 60% of the anti-EA-positive sera reacted with p17.1, 48% with p17.2 and 23% with p17.3.
Seventy-one percent of the sera from ABL patients and 93% of the sera from patients with NANHL reacted with p17.1 as opposed to 23% of the sera from North American patients with NPC.

[4] = serum donors: Burkitt's lymphoma (African), EA titers >160
[5] = serum donors: Lymphoma (total), EA titers >160
[6] = serum donors: Nasopharyngeal carcinoma (North American), EA titers >160
[7] = serum donors: Non-Hodgkin's lymphoma (North American), EA titers >160
[8] = serum donors: Normal (VCA + EA-)
[9] = serum donors: Normal (VCA − EA-)

Sequence | ELISA result, peptides with and without extensions ([1]; sample no. 2241) | ELISA result, peptides with and without extensions ([1]; sample no. 12498) | ELISA result, peptides with and without extensions ([1]; sample no. 12836) | proliferation response [2] | 3H-thymidine Incorporation (cpm + S.D.) ([2]; 3.12 μg/ml) [cpm] | S.I. (stimulation index) ([2]; 3.12 μg/ml) | 3H-thymidine Incorporation (cpm + S.D.) ([2]; 12.5 μg/ml) [cpm] | S.I. (stimulation index) ([2]; 12.5 μg/ml) | 3H-thymidine Incorporation (cpm + S.D.) ([2]; 50 μg/ml) [cpm] | share of anti-EA-positive sera that reacted [3] [%] | No. Positive/No. Tested [3, 4] | No. Positive/No. Tested (%) [3, 4] [%] | No. Positive/No. Tested [3, 5] | No. Positive/No. Tested (%) [3, 5] [%] | No. Positive/No. Tested [3, 6] | No. Positive/No. Tested (%) [3, 6] [%] | No. Positive/No. Tested [3, 7] | No. Positive/No. Tested (%) [3, 7] [%] | No. Positive/No. Tested [3, 8] | No. Positive/No. Tested (%) [3, 8] [%] | further results
ARQKQKHPKKVKQAFNPLI [50.1e, extension of p50.10 by the addition of several amino and carboxy-terminal amino acids] | >2 | 0.946 | 1.718 | – | – | – | – | – | – | – | – | – | – | – | – | – | – | – | – | – | –
GMLEASEGLDGWIHQ [p17.2, synthetic peptide from 17 Kd early antigen (EA-R) region of EBV] | – | – | – | None of these PBL preparations proliferated | 157 ± 23 | 1.1 | 278 ± 58 | 1.9 | 277 ± 175 | 48 | 13/28 | 46 | 36/56 | 64 | 6/31 | 19 | 23/28 | 82 | 0/30 | 0 | No. Positive/No. Tested [3, 9]: 0/23
HQQGGWSTLIEDNIP [p17.3, synthetic peptide from 17 Kd early antigen (EA-R) region of EBV] | – | – | – | None of these PBL preparations proliferated | 194 ± 65 | 1.3 | 132 ± 3 | 0 | 190 ± 47 | 23 | 9/28 | 32 | 16/56 | 29 | 4/31 | 13 | 7/28 | 25 | 0/30 | 0 | No. Positive/No. Tested [3, 9]: 0/23
QNSETFTETWNRFITHTEHVD [17.1e, extension of p17.1 by the addition of several amino and carboxy-terminal amino acids] | 1.277 | 0.502 | 1.257 | – | – | – | – | – | – | – | – | – | – | – | – | – | – | – | – | – | –
